In brackets after ≈: the same amount, converted by molar mass.
Assays:
[1] = Inhibition of Mycobacterium tuberculosis Anthranilate phosphoribosyltransferase expressed in Escherichia coli BL21(DE3) pRIL cells harboring PRAI-InGPS preincubated for 10 mins followed by anthranilate addition in presence of PRPP
[2] = tested on: Mycobacterium tuberculosis; experiment: Antimycobacterial activity against isoniazid/streptomycin resistant Mycobacterium tuberculosis 01-R0348 incubated for 2 weeks; format: functional; conditions: 01-R0348, 336 h
[3] = tested on: Mycobacterium tuberculosis; experiment: Antimycobacterial activity against ofloxacin/isoniazid resistant Mycobacterium tuberculosis CI-14 incubated for 2 weeks; format: functional; conditions: CI-14, 336 h
[4] = tested on: Mycobacterium tuberculosis; experiment: Antimycobacterial activity against ofloxacin resistant Mycobacterium tuberculosis CI-10 incubated for 2 weeks; format: functional; conditions: CI-10, 336 h
[5] = tested on: Mycobacterium tuberculosis; experiment: Antimycobacterial activity against streptomycin resistant Mycobacterium tuberculosis 98-01436 incubated for 2 weeks; format: functional; conditions: 98-01436, 336 h
[6] = tested on: Mycobacterium tuberculosis; experiment: Antimycobacterial activity against isoniazid resistant Mycobacterium tuberculosis BAA-812 incubated for 2 weeks; format: functional; conditions: BAA-812, 336 h
[7] = tested on: Mycobacterium tuberculosis; experiment: Inhibition of Mycobacterium tuberculosis Anthranilate phosphoribosyltransferase expressed in Escherichia coli BL21(DE3) pRIL cells harboring PRAI-InGPS assessed as residual activity preincubated for 10 mins followed by anthranilate addition in presence of PRPP relative to control

Cc1cccc(C(=O)O)c1Nc1cc(Cl)ccc1C(=O)O
IC50 [1]: 5.8 µM

Cc1cccc(C(=O)O)c1Nc1cc(Br)ccc1C(=O)O
IC50 [1]: 3.3 µM

N#C[C@@H]1N[C@@H](CO)[C@H]1c1ccc(-c2ccccc2F)cc1
MIC90 [2]: 1.6 µM (≈ 0.452 µg/mL)
MIC90 [3]: 3 µM (≈ 0.847 µg/mL)
MIC90 [4]: 1.6 µM (≈ 0.452 µg/mL)
MIC90 [5]: 1.6 µM (≈ 0.452 µg/mL)
MIC90 [6]: 3 µM (≈ 0.847 µg/mL)

O=C(O)c1ccccc1Nc1cccc(Nc2ccccc2C(=O)O)c1C(=O)O
IC50 [1]: 2.2 µM
Activity [7]: 6%

Cc1ccc(C(=O)O)c(Nc2c(C)cccc2C(=O)O)c1
IC50 [1]: 6.8 µM
